Source: publication PMC10252048, “Correction: Gubič et al. Design of New Potent and Selective Thiophene-Based KV1.3 Inhibitors and Their Potential for Anticancer Activity. Cancers 2022, 14, 2595” (Cancers, 2023)

How the values were obtained:
Assay in all cases: selectivity, HiClamp system on oocytes
Format in all cases: cell-based
Settings in all cases: 10 µM
KV2.1 = biological target: T1, KV2.1 (Homo sapiens, UniProt Q14721)
T1 construct: expressed in transfected cells; host or cells: Xenopus laevis oocytes
T1 sequence (Q14721 1-858): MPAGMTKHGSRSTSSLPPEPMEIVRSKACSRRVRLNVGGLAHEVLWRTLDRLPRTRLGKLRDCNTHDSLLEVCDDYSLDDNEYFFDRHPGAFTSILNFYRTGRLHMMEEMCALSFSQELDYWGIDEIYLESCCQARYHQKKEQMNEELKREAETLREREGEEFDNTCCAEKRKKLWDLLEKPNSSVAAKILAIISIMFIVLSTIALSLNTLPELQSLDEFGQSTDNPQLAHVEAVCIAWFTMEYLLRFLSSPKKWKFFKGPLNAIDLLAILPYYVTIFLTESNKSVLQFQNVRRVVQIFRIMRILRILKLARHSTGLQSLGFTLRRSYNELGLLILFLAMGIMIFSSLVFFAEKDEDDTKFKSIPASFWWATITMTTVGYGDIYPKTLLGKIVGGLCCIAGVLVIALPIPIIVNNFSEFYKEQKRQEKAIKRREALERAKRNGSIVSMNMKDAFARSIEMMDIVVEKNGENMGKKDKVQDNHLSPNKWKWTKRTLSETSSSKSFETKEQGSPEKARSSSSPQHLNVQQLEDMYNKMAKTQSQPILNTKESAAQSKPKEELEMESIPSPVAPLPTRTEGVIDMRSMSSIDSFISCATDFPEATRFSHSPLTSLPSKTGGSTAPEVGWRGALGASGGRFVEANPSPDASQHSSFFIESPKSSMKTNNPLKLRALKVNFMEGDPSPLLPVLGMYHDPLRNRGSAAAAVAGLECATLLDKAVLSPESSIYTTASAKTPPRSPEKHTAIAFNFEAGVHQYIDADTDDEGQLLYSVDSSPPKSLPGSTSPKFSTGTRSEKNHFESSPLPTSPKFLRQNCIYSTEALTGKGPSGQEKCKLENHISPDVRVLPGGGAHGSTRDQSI

KV4.2 = biological target: T2, KV4.2 (Homo sapiens, UniProt Q9NZV8)
T2 construct: expressed in transfected cells; host or cells: Xenopus laevis oocytes
T2 sequence (Q9NZV8 1-630): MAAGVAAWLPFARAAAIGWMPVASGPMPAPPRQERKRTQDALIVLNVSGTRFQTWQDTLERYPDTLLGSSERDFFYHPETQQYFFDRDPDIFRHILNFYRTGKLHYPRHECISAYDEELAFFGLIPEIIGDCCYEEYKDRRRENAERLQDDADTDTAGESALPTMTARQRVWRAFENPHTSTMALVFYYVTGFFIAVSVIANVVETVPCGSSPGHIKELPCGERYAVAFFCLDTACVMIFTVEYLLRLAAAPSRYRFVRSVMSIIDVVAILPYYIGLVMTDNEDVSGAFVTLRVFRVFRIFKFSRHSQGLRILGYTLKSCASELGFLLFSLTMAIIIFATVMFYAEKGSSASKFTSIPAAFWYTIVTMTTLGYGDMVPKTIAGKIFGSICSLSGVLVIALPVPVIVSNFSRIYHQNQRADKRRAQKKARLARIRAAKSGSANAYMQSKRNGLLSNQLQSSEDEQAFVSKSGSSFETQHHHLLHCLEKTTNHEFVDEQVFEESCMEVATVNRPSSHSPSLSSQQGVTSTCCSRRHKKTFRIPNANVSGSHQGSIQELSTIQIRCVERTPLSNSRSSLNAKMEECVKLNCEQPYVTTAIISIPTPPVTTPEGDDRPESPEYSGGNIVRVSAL

KV1.6 = biological target: T3, KV1.6 (Homo sapiens, UniProt P17658)
T3 construct: expressed in transfected cells; host or cells: Xenopus laevis oocytes
T3 sequence (P17658 whole entry): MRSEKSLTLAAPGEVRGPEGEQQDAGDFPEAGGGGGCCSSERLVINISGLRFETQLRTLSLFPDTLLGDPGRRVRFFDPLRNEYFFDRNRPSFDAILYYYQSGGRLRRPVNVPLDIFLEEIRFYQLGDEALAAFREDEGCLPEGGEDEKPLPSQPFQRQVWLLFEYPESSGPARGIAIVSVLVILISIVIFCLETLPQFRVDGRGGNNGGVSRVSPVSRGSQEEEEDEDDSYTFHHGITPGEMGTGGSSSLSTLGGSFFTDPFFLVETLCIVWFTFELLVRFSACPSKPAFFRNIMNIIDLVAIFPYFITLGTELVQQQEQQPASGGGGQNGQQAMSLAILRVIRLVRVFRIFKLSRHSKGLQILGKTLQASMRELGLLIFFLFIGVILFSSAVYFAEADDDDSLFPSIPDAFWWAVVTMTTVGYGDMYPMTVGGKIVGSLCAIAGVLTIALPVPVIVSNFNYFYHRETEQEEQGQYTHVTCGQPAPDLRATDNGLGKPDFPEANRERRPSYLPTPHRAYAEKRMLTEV

KV1.5 = biological target: T4, KV1.5 (Homo sapiens, UniProt P22460)
T4 construct: expressed in transfected cells; host or cells: Xenopus laevis oocytes
T4 sequence (P22460 whole entry): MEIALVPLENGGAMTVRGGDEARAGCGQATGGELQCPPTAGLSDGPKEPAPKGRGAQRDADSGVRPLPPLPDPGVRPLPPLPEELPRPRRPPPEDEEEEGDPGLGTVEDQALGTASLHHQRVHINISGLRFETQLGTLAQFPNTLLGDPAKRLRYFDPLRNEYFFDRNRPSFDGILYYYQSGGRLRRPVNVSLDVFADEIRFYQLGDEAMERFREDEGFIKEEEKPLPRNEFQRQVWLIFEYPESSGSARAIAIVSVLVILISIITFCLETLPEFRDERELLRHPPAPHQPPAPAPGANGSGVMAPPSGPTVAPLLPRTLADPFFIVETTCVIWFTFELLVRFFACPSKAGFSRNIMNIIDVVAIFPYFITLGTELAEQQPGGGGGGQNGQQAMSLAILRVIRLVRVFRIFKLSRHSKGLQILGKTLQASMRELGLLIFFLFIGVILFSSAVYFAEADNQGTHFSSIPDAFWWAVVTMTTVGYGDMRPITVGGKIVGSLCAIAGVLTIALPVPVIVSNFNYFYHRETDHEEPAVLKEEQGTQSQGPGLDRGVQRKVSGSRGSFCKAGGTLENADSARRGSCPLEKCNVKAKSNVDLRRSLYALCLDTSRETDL

KV1.4 = biological target: T5, KV1.4 (Homo sapiens, UniProt P22459)
T5 construct: expressed in transfected cells; host or cells: Xenopus laevis oocytes
T5 sequence (P22459 whole entry): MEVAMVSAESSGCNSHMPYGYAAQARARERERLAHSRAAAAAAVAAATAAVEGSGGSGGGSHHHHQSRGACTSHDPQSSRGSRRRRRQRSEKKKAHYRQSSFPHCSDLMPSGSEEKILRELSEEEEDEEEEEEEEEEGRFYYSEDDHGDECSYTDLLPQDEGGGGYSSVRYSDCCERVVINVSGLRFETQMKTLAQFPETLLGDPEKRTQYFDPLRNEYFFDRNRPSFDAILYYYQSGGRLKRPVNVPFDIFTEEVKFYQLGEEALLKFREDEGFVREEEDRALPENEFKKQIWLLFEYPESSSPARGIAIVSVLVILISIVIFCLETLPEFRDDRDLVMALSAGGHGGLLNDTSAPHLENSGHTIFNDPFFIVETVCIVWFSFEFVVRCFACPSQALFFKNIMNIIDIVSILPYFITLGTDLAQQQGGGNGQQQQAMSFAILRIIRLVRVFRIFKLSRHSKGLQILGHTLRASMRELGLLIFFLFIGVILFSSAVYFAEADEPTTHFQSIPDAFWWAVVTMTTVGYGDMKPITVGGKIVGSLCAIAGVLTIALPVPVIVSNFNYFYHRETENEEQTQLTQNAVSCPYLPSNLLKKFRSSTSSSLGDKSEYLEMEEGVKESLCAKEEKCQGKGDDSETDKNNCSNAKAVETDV

KV1.1 = biological target: T6, KV1.1 (Homo sapiens, UniProt Q09470)
T6 construct: expressed in transfected cells; host or cells: Xenopus laevis oocytes
T6 sequence (Q09470 whole entry): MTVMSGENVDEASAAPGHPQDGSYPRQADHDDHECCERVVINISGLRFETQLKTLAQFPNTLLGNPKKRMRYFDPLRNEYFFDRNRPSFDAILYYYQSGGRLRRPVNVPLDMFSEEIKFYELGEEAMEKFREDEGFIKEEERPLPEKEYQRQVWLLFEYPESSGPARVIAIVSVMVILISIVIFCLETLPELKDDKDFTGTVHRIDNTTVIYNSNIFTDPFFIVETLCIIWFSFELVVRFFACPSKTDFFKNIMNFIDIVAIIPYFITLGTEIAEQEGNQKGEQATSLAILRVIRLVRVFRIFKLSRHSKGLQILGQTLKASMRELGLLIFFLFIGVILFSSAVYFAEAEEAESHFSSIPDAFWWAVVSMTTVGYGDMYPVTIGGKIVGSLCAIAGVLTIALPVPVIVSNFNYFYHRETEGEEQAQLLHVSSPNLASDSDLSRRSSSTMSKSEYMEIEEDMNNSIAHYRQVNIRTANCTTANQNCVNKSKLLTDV

KV1.2 = biological target: T7, KV1.2 (Homo sapiens, UniProt P16389)
T7 construct: expressed in transfected cells; host or cells: Xenopus laevis oocytes
T7 sequence (P16389 whole entry): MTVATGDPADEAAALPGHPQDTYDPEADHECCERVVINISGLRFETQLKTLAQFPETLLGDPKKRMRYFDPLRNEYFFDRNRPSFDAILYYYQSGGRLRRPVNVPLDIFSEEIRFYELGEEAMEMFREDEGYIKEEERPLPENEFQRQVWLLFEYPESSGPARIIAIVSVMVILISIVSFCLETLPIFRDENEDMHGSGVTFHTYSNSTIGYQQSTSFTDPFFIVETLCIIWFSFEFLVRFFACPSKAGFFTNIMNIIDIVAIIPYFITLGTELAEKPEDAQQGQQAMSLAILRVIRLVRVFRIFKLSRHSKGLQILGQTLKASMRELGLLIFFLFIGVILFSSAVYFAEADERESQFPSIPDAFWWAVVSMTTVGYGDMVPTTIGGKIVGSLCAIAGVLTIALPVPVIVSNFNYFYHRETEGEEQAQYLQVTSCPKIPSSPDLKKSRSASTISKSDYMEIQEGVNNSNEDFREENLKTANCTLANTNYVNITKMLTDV

KV10.1 = biological target: T8, KV10.1 (Homo sapiens, UniProt O95259)
T8 construct: expressed in transfected cells; host or cells: Xenopus laevis oocytes
T8 sequence (O95259 1-989): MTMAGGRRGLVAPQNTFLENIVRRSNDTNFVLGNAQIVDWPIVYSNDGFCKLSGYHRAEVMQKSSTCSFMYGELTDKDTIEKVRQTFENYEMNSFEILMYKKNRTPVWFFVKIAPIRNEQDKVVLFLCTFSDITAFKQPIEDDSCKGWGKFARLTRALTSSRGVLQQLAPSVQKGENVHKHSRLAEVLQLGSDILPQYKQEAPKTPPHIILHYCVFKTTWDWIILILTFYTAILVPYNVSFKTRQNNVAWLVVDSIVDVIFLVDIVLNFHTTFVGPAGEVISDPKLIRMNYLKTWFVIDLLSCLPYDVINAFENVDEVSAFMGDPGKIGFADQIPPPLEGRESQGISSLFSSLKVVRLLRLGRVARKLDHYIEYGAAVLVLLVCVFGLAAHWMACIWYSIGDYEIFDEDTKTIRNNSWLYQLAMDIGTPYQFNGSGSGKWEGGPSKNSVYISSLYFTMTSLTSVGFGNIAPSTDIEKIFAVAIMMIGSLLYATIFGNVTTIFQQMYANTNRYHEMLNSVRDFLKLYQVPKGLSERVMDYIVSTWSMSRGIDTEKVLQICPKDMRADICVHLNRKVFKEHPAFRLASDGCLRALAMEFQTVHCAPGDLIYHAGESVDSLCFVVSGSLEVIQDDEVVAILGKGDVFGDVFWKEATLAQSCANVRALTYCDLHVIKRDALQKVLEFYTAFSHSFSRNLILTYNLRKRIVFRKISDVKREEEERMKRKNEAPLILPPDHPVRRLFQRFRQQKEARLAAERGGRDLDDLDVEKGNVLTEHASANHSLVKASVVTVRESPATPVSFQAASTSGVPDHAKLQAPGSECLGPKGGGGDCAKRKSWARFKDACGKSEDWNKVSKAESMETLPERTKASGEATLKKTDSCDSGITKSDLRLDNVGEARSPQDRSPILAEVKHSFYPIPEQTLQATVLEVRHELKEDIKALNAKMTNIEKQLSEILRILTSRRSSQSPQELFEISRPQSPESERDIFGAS

O=c1ccc2c(OCCCCOc3ccccc3)c3ccoc3cc2o1 [PAP-1 (1), PAP-1]
no significant effects: effect on KV2.1 (KV2.1) | effect on KV4.2 (KV4.2) | effect on KV1.6 (KV1.6) | effect on KV1.5 (KV1.5) | effect on KV1.4 (KV1.4) | effect on KV1.1 (KV1.1) | effect on KV1.2 (KV1.2) | effect on KV10.1 (KV10.1)
